Data set [1] can be described thus: Metabolic stability in mouse and human liver microsomes. It counts as in vitro ADME. The following applies: mouse and human liver microsomes in vitro. Background: Microsomes from liver hold many membrane-bound enzymes, among them those of drug oxidation.
Data set [2] in a line: Metabolic stability in human liver microsomes (HLM).
In data set [3] the target is T1, NTRK2 (Homo sapiens (Human), UniProt Q16620). Kind of data set: NTRK2 inhibition (IC50). The data set is classed as biochemical.
Data set [4] is described as follows: Metabolic stability in mouse liver microsomes (MLM).
Data set [5] concerns the target T1, NTRK2. Kind of data set: Promega NTRK2 NanoBRET live-cell target engagement. The data set is classed as cell-based. The following applies: live cells. From the text: FIGS. 6A-6B show the live-cell engagement (FIG. 6A) concept and an NTRK2 example (FIG. 6B). FIG. 6A: Depiction of Promega's NanoBRET target engagement system as per their website. The system involves cell-based competitive displacement of a fluorescent NanoBRET tracer bound reversibly to a NanoLuc fusion protein. Test compounds displace the tracer dependent on their affinity for the target and […] the NanoBRET signal. FIG. 6B: Example of the use of Promega's NTRK2 NanoBRET cell-based system. Each NTRK2 compound (Cpd) was assayed in kinase assays and in cells. Multiple NTRK2 compounds enter the cell and are potent nanomolar inhibitors in these assays (% normalized to no Cpd).
As described elsewhere herein, hit compounds, including but not limited to CDD-2262, and its smaller analog, CDD-2330, were synthesized off-DNA and evaluated for NTRK2 activity.
Background: Bioluminescence resonance energy transfer reports proximity on the nanometre scale.

In data set [6] the test system is PTGS2 mRNA in endometriotic stromal cells. Briefly: PGE2-stimulated PTGS2 gene expression in endometriotic stromal cells (RT-PCR). The data set is classed as cell-based. The following applies: 1 μM PGE2, 6-hour period. From the text:
FIG. 12A: estrogen, secreted by the ovary and endometriotic lesions, signals to macrophages and nerve fibers, including production of BDNF/NT-3 and pro-inflammatory cytokines, respectively. […] Activated CREB acts on the PTGS2 promoter, creating a positive feedback mechanism that results in elevated inflammation. PGE2 signaling also stimulates PKA/PKC signaling to induce the production of BDNF and NTF3 expression. […] Gene expression of PTGS2 was quantified using quantitative real time PCR (RT-PCR).
Thus, the present disclosure provides evidence that administration of CDD-2330 results in suppression of markers associated with inflammation, and accordingly, is suitable for the treatment of endometriosis.

Data set [7] deals with T1, NTRK2. Briefly: NTRK2 apparent inhibition constant (Ki app).
The conditions of data set [8]: mouse, microsomes.
For data set [9] the following is noted: human, microsomes.

Like-named read-outs stand apart in the source and are kept apart here.

T1 sequence (Q16620 32-822): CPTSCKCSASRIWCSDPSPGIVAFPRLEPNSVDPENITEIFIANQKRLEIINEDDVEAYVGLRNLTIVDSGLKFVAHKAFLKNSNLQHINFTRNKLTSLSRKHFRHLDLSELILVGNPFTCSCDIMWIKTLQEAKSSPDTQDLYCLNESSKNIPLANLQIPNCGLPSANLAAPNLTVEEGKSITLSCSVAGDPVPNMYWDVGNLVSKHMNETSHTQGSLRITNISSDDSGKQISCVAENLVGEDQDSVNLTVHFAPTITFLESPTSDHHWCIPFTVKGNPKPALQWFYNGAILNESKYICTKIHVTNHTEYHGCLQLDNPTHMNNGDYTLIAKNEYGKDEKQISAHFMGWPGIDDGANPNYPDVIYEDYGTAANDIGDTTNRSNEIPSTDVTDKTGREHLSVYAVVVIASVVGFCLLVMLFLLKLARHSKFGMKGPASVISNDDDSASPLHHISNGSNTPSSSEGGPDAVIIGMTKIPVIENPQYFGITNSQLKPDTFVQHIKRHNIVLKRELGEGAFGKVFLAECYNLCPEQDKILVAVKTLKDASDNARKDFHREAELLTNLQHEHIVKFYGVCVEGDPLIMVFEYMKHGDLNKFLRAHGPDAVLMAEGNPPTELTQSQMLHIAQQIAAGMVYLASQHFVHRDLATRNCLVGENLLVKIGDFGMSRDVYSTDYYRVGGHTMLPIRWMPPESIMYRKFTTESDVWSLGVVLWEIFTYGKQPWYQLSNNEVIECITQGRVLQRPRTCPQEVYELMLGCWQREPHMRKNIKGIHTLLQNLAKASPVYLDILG

What is called half-life is how long it takes for the measured level to halve. One may read the IC50 as the point on the concentration scale where inhibition reaches its midpoint. Low readings indicate higher potency, high ones lower potency. For `O=C(O)c1cnn2ccc(CN(C(=O)Nc3ccc(OC(F)(F)F)cc3)C3CCC3)cc12` [CDD-2262, 5-((1-cyclobutyl-3-(4-(trifluoromethoxy)phenyl)ureido)methyl)pyrazolo[1,5-a]pyridine-3-carboxylic acid], the half-life in data set [1] is above 7 h; in [2] it was 7.37 h; in data set [4], 8.87 h. Moreover, the midpoint of inhibition at NTRK2 [3], the IC50, lay at 32 nM. The “cell penetration and effect in NanoBRET assays” value on NTRK2 [5] is listed as “able to penetrate cell membranes to induce an effect”. Also, the “concentration at which PTGS2 mRNA is statistically suppressed” value in data set [6] is above 100 nM. In addition, at NTRK2 [7], the Ki was 17 ± 10 nM.

With “1-cyclobutyl-1-(pyrazolo[1,5-a]pyridin-5-ylmethyl)-3-(4-(trifluoromethoxy)phenyl)urea [CDD-2219]”, the “MLM t1/2” value in data set [8] amounted to 0.47 h. The compound also yielded an IC50 against NTRK2 [3] of 13 nM. Besides, at NTRK2 [5], the “cell penetration and effect in NanoBRET assays” value was “able to penetrate cell membranes to induce an effect”. In data set [9], the “HLM t1/2” value was determined as 0.913 h. Further, the Ki on NTRK2 [7] (read-out: NTRK2 Ki^app, apparent inhibition constant) worked out at 21 ± 7 nM.

Values taken from patent publication US20260049077A1, “Neurotrophic Receptor Tyrosine Kinase (NTRK) Inhibitors and Methods Using Same” (Baylor College of Medicine, priority 2022, published 2026).
